# Test results published in ChEMBL document CHEMBL1147701, “Novel 4-anilinoquinazolines with C-6 carbon-linked side chains: synthesis and structure-activity relationship of a series of potent, orally active, EGF receptor tyrosine kinase inhibitors” (Bioorg Med Chem Lett, 2006).
# Test system: not listed separately
# Assay: Volume of distribution in rat at 5 mg/kg, po and 2 mg/kg, iv
# Format: ADME, organism-based
# Details: in vivo, read-out: Vdss
row,Structure (SMILES),Vd [L/kg]
1,COc1cc2ncnc(Nc3cccc(Cl)c3F)c2cc1CN(C)[C@H](C)C(N)=O,0.6

# Test system: not listed separately
# Assay: Half life in rat at 5 mg/kg, po and 2 mg/kg, iv
# Format: ADME, organism-based
# Details: in vivo
row,Structure (SMILES),half-life [h]
1,COc1cc2ncnc(Nc3cccc(Cl)c3F)c2cc1CN(C)[C@H](C)C(N)=O,4.3

# Test system: not listed separately
# Assay: Bioavailability in rat at 5 mg/kg, po and 2 mg/kg, iv
# Format: ADME, organism-based
# Details: in vivo
row,Structure (SMILES),bioavailability [%]
1,COc1cc2ncnc(Nc3cccc(Cl)c3F)c2cc1CN(C)[C@H](C)C(N)=O,58

# Test system: not listed separately
# Assay: Distribution coefficient, logD of the compound
# Format: physicochemical
# Details: octanol/water
row,Structure (SMILES),logD
1,COc1cc2ncnc(Nc3cccc(Cl)c3F)c2cc1CN(C)[C@H](C)C(N)=O,3.4

# Target: Glycogen synthase kinase-3 beta (Homo sapiens, UniProt P49841)
# Sequence (P49841 whole entry): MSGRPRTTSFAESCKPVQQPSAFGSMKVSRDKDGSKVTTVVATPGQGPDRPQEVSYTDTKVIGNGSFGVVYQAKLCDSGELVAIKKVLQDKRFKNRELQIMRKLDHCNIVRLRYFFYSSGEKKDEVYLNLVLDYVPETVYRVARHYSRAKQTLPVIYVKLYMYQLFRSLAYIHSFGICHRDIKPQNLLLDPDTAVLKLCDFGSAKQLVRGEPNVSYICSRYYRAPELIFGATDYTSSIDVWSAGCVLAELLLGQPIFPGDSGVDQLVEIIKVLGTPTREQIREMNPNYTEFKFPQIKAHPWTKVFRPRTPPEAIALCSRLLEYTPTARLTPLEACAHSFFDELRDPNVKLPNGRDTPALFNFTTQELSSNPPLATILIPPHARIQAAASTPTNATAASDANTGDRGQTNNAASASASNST
# Assay: Inhibition of GSK3-beta
# Details: not given
row,Structure (SMILES),IC50 [µM]
1,COc1cc2ncnc(Nc3cccc(Cl)c3F)c2cc1CN(C)C1(C(N)=O)CCN(C)CC1,> 10
2,COc1cc2ncnc(Nc3cccc(Cl)c3F)c2cc1CN(C)C1(C(N)=O)CN(C)C1,> 10
3,COc1cc2ncnc(Nc3cccc(Cl)c3F)c2cc1CN(C)[C@H](C)C(N)=O,> 10

# Target: Proto-oncogene tyrosine-protein kinase Src (Homo sapiens, UniProt P12931)
# Sequence (P12931 2-536 limits assumed): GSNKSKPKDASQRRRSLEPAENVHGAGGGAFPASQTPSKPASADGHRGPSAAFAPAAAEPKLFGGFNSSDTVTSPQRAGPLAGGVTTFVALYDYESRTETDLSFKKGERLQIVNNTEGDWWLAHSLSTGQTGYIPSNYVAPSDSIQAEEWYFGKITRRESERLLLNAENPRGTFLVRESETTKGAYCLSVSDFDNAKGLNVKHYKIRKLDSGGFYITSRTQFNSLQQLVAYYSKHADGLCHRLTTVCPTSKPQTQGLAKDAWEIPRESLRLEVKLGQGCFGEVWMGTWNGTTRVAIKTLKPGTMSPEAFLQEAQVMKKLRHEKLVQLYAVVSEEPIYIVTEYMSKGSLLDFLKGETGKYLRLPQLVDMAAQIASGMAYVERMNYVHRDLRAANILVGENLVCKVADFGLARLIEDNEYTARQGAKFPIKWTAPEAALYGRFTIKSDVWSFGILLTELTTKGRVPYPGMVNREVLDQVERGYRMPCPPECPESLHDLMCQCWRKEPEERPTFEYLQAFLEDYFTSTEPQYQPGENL
# Assay: Inhibition of Src
# Details: not given
row,Structure (SMILES),IC50 [µM]
1,COc1cc2ncnc(Nc3cccc(Cl)c3F)c2cc1CN(C)C1(C(N)=O)CCN(C)CC1,> 10
2,COc1cc2ncnc(Nc3cccc(Cl)c3F)c2cc1CN(C)C1(C(N)=O)CN(C)C1,> 10
3,COc1cc2ncnc(Nc3cccc(Cl)c3F)c2cc1CN(C)[C@H](C)C(N)=O,> 10

# Target: T1, Serine/threonine-protein kinase Chk1 (Homo sapiens, UniProt O14757)
# T1 sequence (O14757 whole entry): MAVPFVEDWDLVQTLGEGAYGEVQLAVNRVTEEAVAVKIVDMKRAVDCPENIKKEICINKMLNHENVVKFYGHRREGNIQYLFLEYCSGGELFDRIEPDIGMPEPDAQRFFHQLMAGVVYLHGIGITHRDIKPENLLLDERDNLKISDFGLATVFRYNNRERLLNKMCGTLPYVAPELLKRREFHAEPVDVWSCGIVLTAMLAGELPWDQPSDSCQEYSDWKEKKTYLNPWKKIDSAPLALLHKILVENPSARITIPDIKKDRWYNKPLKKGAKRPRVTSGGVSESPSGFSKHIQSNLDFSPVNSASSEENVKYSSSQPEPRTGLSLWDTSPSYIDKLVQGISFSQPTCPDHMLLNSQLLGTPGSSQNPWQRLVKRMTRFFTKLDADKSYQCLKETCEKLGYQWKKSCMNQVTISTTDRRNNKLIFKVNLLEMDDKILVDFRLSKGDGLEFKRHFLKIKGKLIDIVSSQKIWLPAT
# Assay: Inhibition of CHK1
# Details: not given
row,Structure (SMILES),IC50 [µM]
1,COc1cc2ncnc(Nc3cccc(Cl)c3F)c2cc1CN(C)C1(C(N)=O)CCN(C)CC1,> 10
2,COc1cc2ncnc(Nc3cccc(Cl)c3F)c2cc1CN(C)C1(C(N)=O)CN(C)C1,> 10
3,COc1cc2ncnc(Nc3cccc(Cl)c3F)c2cc1CN(C)[C@H](C)C(N)=O,> 10

# Target: Vascular endothelial growth factor receptor 2 (Homo sapiens, UniProt P35968)
# Sequence (P35968 whole entry): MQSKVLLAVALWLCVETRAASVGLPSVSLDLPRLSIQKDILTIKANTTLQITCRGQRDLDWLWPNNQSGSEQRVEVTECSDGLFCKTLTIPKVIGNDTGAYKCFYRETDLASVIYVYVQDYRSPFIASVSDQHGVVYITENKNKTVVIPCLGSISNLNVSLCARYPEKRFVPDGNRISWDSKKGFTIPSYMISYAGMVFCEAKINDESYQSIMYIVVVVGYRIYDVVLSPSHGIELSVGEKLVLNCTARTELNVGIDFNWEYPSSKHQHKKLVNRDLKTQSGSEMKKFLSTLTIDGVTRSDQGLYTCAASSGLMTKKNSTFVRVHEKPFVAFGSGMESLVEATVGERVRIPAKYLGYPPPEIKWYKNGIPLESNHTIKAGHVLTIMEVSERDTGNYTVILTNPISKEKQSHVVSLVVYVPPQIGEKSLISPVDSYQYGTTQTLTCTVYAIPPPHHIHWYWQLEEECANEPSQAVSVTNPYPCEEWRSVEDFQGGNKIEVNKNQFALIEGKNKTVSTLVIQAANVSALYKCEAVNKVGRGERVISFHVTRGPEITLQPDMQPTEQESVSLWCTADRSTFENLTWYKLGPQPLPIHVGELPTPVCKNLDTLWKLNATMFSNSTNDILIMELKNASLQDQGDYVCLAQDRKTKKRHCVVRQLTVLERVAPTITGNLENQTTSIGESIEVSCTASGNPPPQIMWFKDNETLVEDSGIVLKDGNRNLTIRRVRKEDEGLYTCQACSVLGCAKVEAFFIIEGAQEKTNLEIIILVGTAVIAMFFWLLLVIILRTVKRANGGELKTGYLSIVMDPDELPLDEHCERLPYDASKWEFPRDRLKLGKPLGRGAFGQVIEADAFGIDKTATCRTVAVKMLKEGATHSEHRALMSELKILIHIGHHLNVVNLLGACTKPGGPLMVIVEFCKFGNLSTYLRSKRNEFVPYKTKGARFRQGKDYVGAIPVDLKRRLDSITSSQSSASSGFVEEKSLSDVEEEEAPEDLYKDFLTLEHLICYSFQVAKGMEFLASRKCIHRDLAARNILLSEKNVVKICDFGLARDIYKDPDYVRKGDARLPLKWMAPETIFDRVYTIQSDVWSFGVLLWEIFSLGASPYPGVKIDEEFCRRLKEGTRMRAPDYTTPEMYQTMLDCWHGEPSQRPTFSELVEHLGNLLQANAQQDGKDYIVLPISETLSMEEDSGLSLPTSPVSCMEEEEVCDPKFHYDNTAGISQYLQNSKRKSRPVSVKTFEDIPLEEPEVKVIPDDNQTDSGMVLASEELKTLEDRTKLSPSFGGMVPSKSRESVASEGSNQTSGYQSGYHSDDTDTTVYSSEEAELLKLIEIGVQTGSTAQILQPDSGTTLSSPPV
# Details: not given
row,Structure (SMILES),IC50 [µM]
1,COc1cc2ncnc(Nc3cccc(Cl)c3F)c2cc1CN(C)C1(C(N)=O)CCN(C)CC1,> 10
2,COc1cc2ncnc(Nc3cccc(Cl)c3F)c2cc1CN(C)C1(C(N)=O)CN(C)C1,> 10
3,COc1cc2ncnc(Nc3cccc(Cl)c3F)c2cc1CN(C)[C@H](C)C(N)=O,> 10

# Test system: not listed separately
# Assay: Volume of distribution in rat
# Format: ADME, organism-based
# Details: in vivo, read-out: Vdss
row,Structure (SMILES),Vd [L/kg]
1,COc1cc2ncnc(Nc3cccc(Cl)c3F)c2cc1CN(C)C1(C(N)=O)CCN(C)CC1,7.5
2,COc1cc2ncnc(Nc3cccc(Cl)c3F)c2cc1CN(C)C1(C(N)=O)CN(C)C1,9.4

# Test system: not listed separately
# Assay: Solubility in phosphate buffer at pH 7.4
# Format: physicochemical
# Details: not given
row,Structure (SMILES),solubility [µM]
1,COc1cc2ncnc(Nc3cccc(Cl)c3F)c2cc1CN(C)[C@H](C)C(N)=O,40

# Target: Mitogen-activated protein kinase 1 (Homo sapiens, UniProt P28482)
# Sequence (P28482 whole entry): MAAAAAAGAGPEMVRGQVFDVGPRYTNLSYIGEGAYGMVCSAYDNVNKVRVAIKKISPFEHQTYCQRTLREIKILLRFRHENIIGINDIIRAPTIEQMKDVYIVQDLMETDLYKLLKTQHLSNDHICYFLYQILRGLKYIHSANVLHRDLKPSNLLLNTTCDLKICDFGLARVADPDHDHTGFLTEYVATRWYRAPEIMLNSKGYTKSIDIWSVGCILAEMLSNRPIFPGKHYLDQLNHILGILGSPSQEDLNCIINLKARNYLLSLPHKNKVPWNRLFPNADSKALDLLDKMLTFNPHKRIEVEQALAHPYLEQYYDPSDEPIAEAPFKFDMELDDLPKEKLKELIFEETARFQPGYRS
# Assay: Inhibition of MAPK
# Details: not given
row,Structure (SMILES),IC50 [µM]
1,COc1cc2ncnc(Nc3cccc(Cl)c3F)c2cc1CN(C)C1(C(N)=O)CCN(C)CC1,> 10
2,COc1cc2ncnc(Nc3cccc(Cl)c3F)c2cc1CN(C)C1(C(N)=O)CN(C)C1,> 10
3,COc1cc2ncnc(Nc3cccc(Cl)c3F)c2cc1CN(C)[C@H](C)C(N)=O,> 10

# Test system: not listed separately
# Assay: Inhibition of CDK
# Details: not given
row,Structure (SMILES),IC50 [µM]
1,COc1cc2ncnc(Nc3cccc(Cl)c3F)c2cc1CN(C)C1(C(N)=O)CCN(C)CC1,> 10
2,COc1cc2ncnc(Nc3cccc(Cl)c3F)c2cc1CN(C)C1(C(N)=O)CN(C)C1,> 10
3,COc1cc2ncnc(Nc3cccc(Cl)c3F)c2cc1CN(C)[C@H](C)C(N)=O,> 10

# Test system: not listed separately
# Assay: Dissociation constant, pKa of the compound
# Format: physicochemical
# Details: not given
row,Structure (SMILES),pKa
1,COc1cc2ncnc(Nc3cccc(Cl)c3F)c2cc1CN(C)C1(C(N)=O)CCN(C)CC1,8.3
2,COc1cc2ncnc(Nc3cccc(Cl)c3F)c2cc1CN(C)C1(C(N)=O)CN(C)C1,7.9
3,COc1cc2ncnc(Nc3cccc(Cl)c3F)c2cc1CN(C)[C@H](C)C(N)=O,6.8

# Test system: not listed separately
# Assay: Clearance in rat
# Format: ADME, organism-based
# Details: in vivo
row,Structure (SMILES),clearance [mL/min/kg]
1,COc1cc2ncnc(Nc3cccc(Cl)c3F)c2cc1CN(C)C1(C(N)=O)CCN(C)CC1,55
2,COc1cc2ncnc(Nc3cccc(Cl)c3F)c2cc1CN(C)C1(C(N)=O)CN(C)C1,55

# Test system: not listed separately
# Assay: Percent of unbound drug in dog plasma
# Format: ADME, organism-based, Canis lupus familiaris
# Details: not given
row,Structure (SMILES),fraction unbound
1,COc1cc2ncnc(Nc3cccc(Cl)c3F)c2cc1CN(C)[C@H](C)C(N)=O,0.01

# Test system: not listed separately
# Assay: Bioavailability in rat
# Format: ADME, organism-based
# Details: in vivo
row,Structure (SMILES),bioavailability [%]
1,COc1cc2ncnc(Nc3cccc(Cl)c3F)c2cc1CN(C)C1(C(N)=O)CCN(C)CC1,< 50
2,COc1cc2ncnc(Nc3cccc(Cl)c3F)c2cc1CN(C)C1(C(N)=O)CN(C)C1,< 50

# Test system: not listed separately
# Assay: Inhibition of P450
# Format: ADME
# Details: not given
row,Structure (SMILES),IC50 [µM]
1,COc1cc2ncnc(Nc3cccc(Cl)c3F)c2cc1CN(C)[C@H](C)C(N)=O,> 10

# Target: Rho-associated protein kinase 2 (Homo sapiens, UniProt O75116)
# Sequence (O75116 whole entry): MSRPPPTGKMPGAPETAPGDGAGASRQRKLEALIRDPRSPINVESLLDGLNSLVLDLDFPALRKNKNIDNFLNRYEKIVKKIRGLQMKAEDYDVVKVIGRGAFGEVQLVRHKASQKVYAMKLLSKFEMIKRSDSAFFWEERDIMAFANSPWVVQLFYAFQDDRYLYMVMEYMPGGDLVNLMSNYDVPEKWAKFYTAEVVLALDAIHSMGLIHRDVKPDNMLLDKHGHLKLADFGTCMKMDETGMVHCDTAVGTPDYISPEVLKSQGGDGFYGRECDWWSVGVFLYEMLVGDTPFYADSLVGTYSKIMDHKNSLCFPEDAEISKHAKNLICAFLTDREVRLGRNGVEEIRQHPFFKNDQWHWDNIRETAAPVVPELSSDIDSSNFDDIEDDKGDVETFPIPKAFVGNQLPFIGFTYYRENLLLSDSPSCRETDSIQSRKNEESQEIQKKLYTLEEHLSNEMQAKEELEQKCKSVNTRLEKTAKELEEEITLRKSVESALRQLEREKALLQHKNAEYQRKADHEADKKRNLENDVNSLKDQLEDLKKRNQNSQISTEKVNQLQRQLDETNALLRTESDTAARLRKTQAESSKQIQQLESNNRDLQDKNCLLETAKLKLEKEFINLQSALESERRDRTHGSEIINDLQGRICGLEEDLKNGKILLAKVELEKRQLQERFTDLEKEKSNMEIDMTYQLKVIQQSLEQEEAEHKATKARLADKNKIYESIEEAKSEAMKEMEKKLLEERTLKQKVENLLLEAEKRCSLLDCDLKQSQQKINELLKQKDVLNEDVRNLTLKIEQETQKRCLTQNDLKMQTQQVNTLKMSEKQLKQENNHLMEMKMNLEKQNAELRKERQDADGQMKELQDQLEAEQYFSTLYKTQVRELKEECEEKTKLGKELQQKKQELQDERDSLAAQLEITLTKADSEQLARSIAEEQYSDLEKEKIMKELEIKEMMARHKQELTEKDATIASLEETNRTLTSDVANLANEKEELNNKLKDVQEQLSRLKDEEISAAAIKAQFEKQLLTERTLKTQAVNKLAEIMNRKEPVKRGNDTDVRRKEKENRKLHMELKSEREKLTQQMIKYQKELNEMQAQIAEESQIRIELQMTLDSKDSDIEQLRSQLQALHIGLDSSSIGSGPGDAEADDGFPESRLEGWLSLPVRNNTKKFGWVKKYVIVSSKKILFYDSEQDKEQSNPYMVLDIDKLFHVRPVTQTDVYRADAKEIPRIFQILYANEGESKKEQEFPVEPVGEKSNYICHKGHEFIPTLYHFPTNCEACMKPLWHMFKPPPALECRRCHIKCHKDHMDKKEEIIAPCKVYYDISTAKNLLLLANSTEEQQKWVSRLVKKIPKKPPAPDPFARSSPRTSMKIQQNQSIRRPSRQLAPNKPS
# Assay: Inhibition of ROCK2
# Details: not given
row,Structure (SMILES),IC50 [µM]
1,COc1cc2ncnc(Nc3cccc(Cl)c3F)c2cc1CN(C)C1(C(N)=O)CCN(C)CC1,> 10
2,COc1cc2ncnc(Nc3cccc(Cl)c3F)c2cc1CN(C)C1(C(N)=O)CN(C)C1,> 10
3,COc1cc2ncnc(Nc3cccc(Cl)c3F)c2cc1CN(C)[C@H](C)C(N)=O,> 10

# Target: T2, Serine/threonine-protein kinase Sgk1 (Homo sapiens, UniProt O00141)
# T2 sequence (O00141 whole entry): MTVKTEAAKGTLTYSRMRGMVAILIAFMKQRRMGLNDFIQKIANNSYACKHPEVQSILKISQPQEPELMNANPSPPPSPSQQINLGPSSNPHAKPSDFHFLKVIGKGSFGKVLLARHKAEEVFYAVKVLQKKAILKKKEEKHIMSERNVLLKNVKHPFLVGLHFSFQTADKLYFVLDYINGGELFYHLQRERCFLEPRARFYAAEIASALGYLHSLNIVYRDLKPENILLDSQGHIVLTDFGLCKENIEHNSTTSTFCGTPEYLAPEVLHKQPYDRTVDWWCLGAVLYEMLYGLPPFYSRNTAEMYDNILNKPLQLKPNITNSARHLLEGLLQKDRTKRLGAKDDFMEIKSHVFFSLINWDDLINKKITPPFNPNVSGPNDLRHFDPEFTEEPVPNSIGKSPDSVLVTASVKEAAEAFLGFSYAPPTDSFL
# Assay: Inhibition of SGK
# Details: not given
row,Structure (SMILES),IC50 [µM]
1,COc1cc2ncnc(Nc3cccc(Cl)c3F)c2cc1CN(C)C1(C(N)=O)CCN(C)CC1,> 10
2,COc1cc2ncnc(Nc3cccc(Cl)c3F)c2cc1CN(C)C1(C(N)=O)CN(C)C1,> 10
3,COc1cc2ncnc(Nc3cccc(Cl)c3F)c2cc1CN(C)[C@H](C)C(N)=O,> 10

# Target: AMP-activated protein kinase, AMPK
# Assay: Inhibition of AMPK
# Format: protein-complex assay
# Details: not given
row,Structure (SMILES),IC50 [µM]
1,COc1cc2ncnc(Nc3cccc(Cl)c3F)c2cc1CN(C)C1(C(N)=O)CCN(C)CC1,> 10
2,COc1cc2ncnc(Nc3cccc(Cl)c3F)c2cc1CN(C)C1(C(N)=O)CN(C)C1,> 10
3,COc1cc2ncnc(Nc3cccc(Cl)c3F)c2cc1CN(C)[C@H](C)C(N)=O,> 10

# Target: cAMP-dependent protein kinase (PKA) (Homo sapiens, UniProt P22694+P17612+P22612)
# Assay: Inhibition of PKA
# Format: protein assay
# Details: not given
row,Structure (SMILES),IC50 [µM]
1,COc1cc2ncnc(Nc3cccc(Cl)c3F)c2cc1CN(C)C1(C(N)=O)CCN(C)CC1,> 10
2,COc1cc2ncnc(Nc3cccc(Cl)c3F)c2cc1CN(C)C1(C(N)=O)CN(C)C1,> 10
3,COc1cc2ncnc(Nc3cccc(Cl)c3F)c2cc1CN(C)[C@H](C)C(N)=O,> 10

# Target: c-Jun N-terminal kinase, JNK (Homo sapiens, UniProt P45983+P53779+P45984)
# Assay: Inhibition of JNK
# Format: protein assay
# Details: not given
row,Structure (SMILES),IC50 [µM]
1,COc1cc2ncnc(Nc3cccc(Cl)c3F)c2cc1CN(C)C1(C(N)=O)CCN(C)CC1,> 10
2,COc1cc2ncnc(Nc3cccc(Cl)c3F)c2cc1CN(C)C1(C(N)=O)CN(C)C1,> 10
3,COc1cc2ncnc(Nc3cccc(Cl)c3F)c2cc1CN(C)[C@H](C)C(N)=O,> 10

# Test system: not listed separately
# Assay: Percent of unbound drug in rat plasma
# Format: ADME, organism-based
# Details: not given
row,Structure (SMILES),fraction unbound
1,COc1cc2ncnc(Nc3cccc(Cl)c3F)c2cc1CN(C)[C@H](C)C(N)=O,0.06

# Test system: LoVo
# Assay: Antitumor activity against human LoVo cell line xenografted in athymic mouse at 25 mg/kg/day after 18 days
# Format: functional
# Details: 432 h
row,Structure (SMILES),inhibition in vivo at 25 mg/kg/day [%]
1,COc1cc2ncnc(Nc3cccc(Cl)c3F)c2cc1CN(C)[C@H](C)C(N)=O,37

# Test system: not listed separately
# Assay: Apparent permeability from apical to basolateral side of the Caco-2 cell
# Format: ADME, cell-based
# Details: human, read-out: permeability
row,Structure (SMILES),Papp A→B [×10⁻⁶ cm/s]
1,COc1cc2ncnc(Nc3cccc(Cl)c3F)c2cc1CN(C)[C@H](C)C(N)=O,> 13

# Target: Tyrosine-protein kinase Lck (Homo sapiens, UniProt P06239)
# Sequence (P06239 whole entry): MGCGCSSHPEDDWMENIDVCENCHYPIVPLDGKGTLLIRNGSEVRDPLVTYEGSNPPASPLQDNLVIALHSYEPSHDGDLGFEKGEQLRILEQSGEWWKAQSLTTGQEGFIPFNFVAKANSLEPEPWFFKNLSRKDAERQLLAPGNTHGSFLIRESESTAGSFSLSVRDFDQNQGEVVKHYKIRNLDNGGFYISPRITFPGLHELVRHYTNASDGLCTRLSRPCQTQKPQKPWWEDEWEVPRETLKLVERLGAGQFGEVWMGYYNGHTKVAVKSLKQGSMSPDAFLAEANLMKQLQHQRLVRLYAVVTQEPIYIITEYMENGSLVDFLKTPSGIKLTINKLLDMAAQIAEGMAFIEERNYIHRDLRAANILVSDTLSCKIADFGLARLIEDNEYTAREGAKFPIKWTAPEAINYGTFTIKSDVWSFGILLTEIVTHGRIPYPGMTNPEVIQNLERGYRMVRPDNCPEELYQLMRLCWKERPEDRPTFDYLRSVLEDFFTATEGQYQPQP
# Details: not given
row,Structure (SMILES),IC50 [µM]
1,COc1cc2ncnc(Nc3cccc(Cl)c3F)c2cc1CN(C)C1(C(N)=O)CCN(C)CC1,> 10
2,COc1cc2ncnc(Nc3cccc(Cl)c3F)c2cc1CN(C)C1(C(N)=O)CN(C)C1,> 10
3,COc1cc2ncnc(Nc3cccc(Cl)c3F)c2cc1CN(C)[C@H](C)C(N)=O,> 10

# Test system: not listed separately
# Assay: Percent of unbound drug in human plasma
# Format: ADME, organism-based
# Details: not given
row,Structure (SMILES),fraction unbound
1,COc1cc2ncnc(Nc3cccc(Cl)c3F)c2cc1CN(C)[C@H](C)C(N)=O,0.05

# Test system: not listed separately
# Assay: Clearance in rat at 5 mg/kg, po and 2 mg/kg, iv
# Format: ADME, organism-based
# Details: in vivo
row,Structure (SMILES),clearance [mL/min/kg]
1,COc1cc2ncnc(Nc3cccc(Cl)c3F)c2cc1CN(C)[C@H](C)C(N)=O,6

# Target: MAP kinase p38 (Homo sapiens, UniProt O15264+Q15759+Q16539+P53778)
# Details: not given
row,Structure (SMILES),IC50 [µM]
1,COc1cc2ncnc(Nc3cccc(Cl)c3F)c2cc1CN(C)C1(C(N)=O)CCN(C)CC1,> 10
2,COc1cc2ncnc(Nc3cccc(Cl)c3F)c2cc1CN(C)C1(C(N)=O)CN(C)C1,> 10
3,COc1cc2ncnc(Nc3cccc(Cl)c3F)c2cc1CN(C)[C@H](C)C(N)=O,> 10
